Measured values reported in article PMC13198257, “An aerosolized dual-action autotaxin inhibitor-PPARγ agonist for the treatment of pulmonary fibrosis” (Cell Reports Medicine, 2026).

Test system: lung gene expression
Assay: RNA sequencing of lung tissue (BLM/EL244 vs BLM)
Type: in vivo, mouse
Settings: BLM/EL244 vs BLM
Description: RNA quality was assessed using an Agilent TapeStation 4150 with the High Sensitivity […] ScreenTape (Agilent), according to the manufacturer’s protocols. For library preparation, the QuantSeq 3’mRNA-Seq Library Prep Kit (Lexogen) was used according to manufacturer’s instructions. Briefly, 500 ng of RNA from each sample was used for first-strand synthesis, followed by RNA template removal, and second-strand synthesis initiated by random primers. In-line barcodes were introduced at this step, and this was followed by magnetic bead-based purification. The resulting libraries were amplified for 15 cycles and re-purified, with quantity and quality assessed on a Qubit 4 Fluorometer with the Invitrogen Qubit dsDNA HS Assay and an Agilent Tapestation 4150 with the High Sensitivity D1000 assay kit, respectively. The quantified libraries were pooled equimolarly; 50ng of total library mix was used for Adapter Conversion PCR Amplification using the Universal Library Conversion Kit (App-A), Version: V1.0 (MGI Tech Co., Ltd.), according to the manufacturer’s instructions.
The quantity and quality of the purified adapter conversion PCR (AC-PCR) product were evaluated on a Qubit 4 Fluorometer with the Invitrogen Qubit dsDNA HS Assay and on an Agilent Tapestation 4150 with the High Sensitivity D1000 assay kit, respectively. This was followed by DNA denaturation, Single-Strand Circularisation, Enzymatic Digestion, Enzymatic Digestion Product Cleanup and Quality Control steps on 1 pmol of AC-PCR product, according to the Universal Library Conversion Kit (App-A) User Manual (Version: A3).
Finally, 60 fmol of ssCirDNA were used for DNB preparation and sequencing on a DNBSEQ-G400 platform at the BSRC Alexander Fleming Genomics Facility, using a G400 App-A FCS SE100 High-throughput Sequencing Set (MGI Tech Co., Ltd.), according to the manufacturer’s instructions.
Alignment of the FASTQ files was performed against the mouse genome build mm10 using a custom Bash script.[143] Read counting on the 3′ UTRs and differential expression analysis were conducted using the metaseqR2 bioconductor package.[144] Genes corresponding to the following biotypes were excluded: polymorphic_pseudogene, processed_transcript, pseudogene, IG_V_pseudogene, misc_RNA, IG_C_gene, IG_J_gene, IG_D_gene, IG_LV_gene, TR_V_gene, TR_V_pseudogene, TEC, and processed_pseudogene. Gene counts were normalized with DESEQ[145] through metaseqR2. Genes with more than 10 counts in at least 50% of the samples were kept for further processing. For differential expression analysis, the PANDORA algorithm[146] was used to estimate a meta p-value integrating the results from the DESEQ, DESEQ2,[147] edgeR,[148] limma,[149] NBPSeq,[150] and NOISeq[151] algorithms. All additional parameters were set to default values.
Pathway enrichment analysis was performed for the Gene Ontology Biological process (BP) and Molecular Function (MF) terms through GeneCodis 4.[152] The volcano plots, scatterplots, Venn diagrams, and dot plots were generated using the ggplot2 Bioconductor package.

[1] = lung tissue of BLM-treated mice

## O=C1NC(=O)C(Cc2ccc(OCCC3CCN(C(=O)OCc4cc(Cl)cc(Cl)c4)CC3)cc2)S1 (stereo not shown) [EL244, 3,5-dichlorobenzyl 4-(2-(4-((2,4-dioxothiazolidin-5-yl)methyl)phenoxy)ethyl)piperidine-1-carboxylate]
[1]
  Synm log2 nFC: 0.84
  Synm nFC: 1.79
  Tbc1d8 log2 nFC: 1.01
  Tbc1d8 nFC: 2.01
  Tbkbp1 log2 nFC: 0.71
  Tbkbp1 nFC: 1.64
  Tgfbr3 log2 nFC: 0.83
  Tgfbr3 nFC: 1.78
  Tmcc3 log2 nFC: 0.74
  Tmcc3 nFC: 1.67
  Tmem100 log2 nFC: 0.82
  Tmem100 nFC: 1.77
  Tns2 log2 nFC: 0.77
  Tns2 nFC: 1.70
  Tppp3 log2 nFC: 0.77
  Tppp3 nFC: 1.70
  Unc45b log2 nFC: 0.77
  Unc45b nFC: 1.70
  Vpreb3 log2 nFC: 0.71
  Vpreb3 nFC: 1.63
  Vwa3b log2 nFC: 0.98
  Vwa3b nFC: 1.97
  Zfp36 log2 nFC: 0.94
  Zfp36 nFC: 1.92
Lung tissue
  Acss1 log2 nFC: 0.65
  Acss1 nFC: 1.56
  Actn1 log2 nFC: -0.60
  Actn1 nFC: 0.66
  Adam12 log2 nFC: -1.57
  Adam12 nFC: 0.34
  Adamts4 log2 nFC: -2.15
  Adamts4 nFC: 0.23
  Adamts12 log2 nFC: -1.47
  Adamts12 nFC: 0.36
  Adgre1 log2 nFC: -0.79
  Adgre1 nFC: 0.58
  Ahnak log2 nFC: 0.61
  Ahnak nFC: 1.52
  Akap12 log2 nFC: 0.65
  Akap12 nFC: 1.57
  Ankrd37 log2 nFC: -1.50
  Ankrd37 nFC: 0.35
  Anln log2 nFC: -2.01
  Anln nFC: 0.25
  Apoe log2 nFC: -0.84
  Apoe nFC: 0.56
  Arg1 log2 nFC: -2.32
  Arg1 nFC: 0.20
  Arhgef39 log2 nFC: -1.70
  Arhgef39 nFC: 0.31
  Aurka log2 nFC: -2.19
  Aurka nFC: 0.22
  Aurkb log2 nFC: -1.85
  Aurkb nFC: 0.28
  Bex3 log2 nFC: -0.75
  Bex3 nFC: 0.59
  Bhlhe40 log2 nFC: -0.85
  Bhlhe40 nFC: 0.56
  Birc5 log2 nFC: -2.03
  Birc5 nFC: 0.25
  Bmpr2 log2 nFC: 0.60
  Bmpr2 nFC: 1.52
  Brca2 log2 nFC: -1.64
  Brca2 nFC: 0.32
  Brinp1 log2 nFC: -1.85
  Brinp1 nFC: 0.28
  C1qa log2 nFC: -1.44
  C1qa nFC: 0.37
  C1qb log2 nFC: -1.51
  C1qb nFC: 0.35
  C1qc log2 nFC: -1.56
  C1qc nFC: 0.34
  C3ar1 log2 nFC: -1.58
  C3ar1 nFC: 0.33
  Capg log2 nFC: -0.82
  Capg nFC: 0.57
  Casp3 log2 nFC: -0.85
  Casp3 nFC: 0.56
  Ccdc80 log2 nFC: -1.64
  Ccdc80 nFC: 0.32
  Ccl2 log2 nFC: -1.43
  Ccl2 nFC: 0.37
  Ccl7 log2 nFC: -1.75
  Ccl7 nFC: 0.30
  Ccl8 log2 nFC: -1.54
  Ccl8 nFC: 0.34
  Ccl12 log2 nFC: -2.27
  Ccl12 nFC: 0.21
  Ccn4 log2 nFC: -2.20
  Ccn4 nFC: 0.22
  Ccna2 log2 nFC: -2.26
  Ccna2 nFC: 0.21
  Ccnb1 log2 nFC: -2.41
  Ccnb1 nFC: 0.19
  Ccnb2 log2 nFC: -1.68
  Ccnb2 nFC: 0.31
  Ccne1 log2 nFC: -2.04
  Ccne1 nFC: 0.24
  Ccnf log2 nFC: -2.02
  Ccnf nFC: 0.25
  Ccr5 log2 nFC: -1.76
  Ccr5 nFC: 0.30
  Cd63 log2 nFC: -0.76
  Cd63 nFC: 0.59
  Cd276 log2 nFC: -1.70
  Cd276 nFC: 0.31
  Cdc20 log2 nFC: -1.58
  Cdc20 nFC: 0.34
  Cdca3 log2 nFC: -1.83
  Cdca3 nFC: 0.28
  Cdca8 log2 nFC: -2.32
  Cdca8 nFC: 0.20
  Cdk1 log2 nFC: -1.99
  Cdk1 nFC: 0.25
  Cdk19 log2 nFC: -0.64
  Cdk19 nFC: 0.64
  Cdkn3 log2 nFC: -1.68
  Cdkn3 nFC: 0.31
  Cenpe log2 nFC: -1.70
  Cenpe nFC: 0.31
  Cenpf log2 nFC: -2.20
  Cenpf nFC: 0.22
  Cenph log2 nFC: -2.04
  Cenph nFC: 0.24
  Cenpk log2 nFC: -1.51
  Cenpk nFC: 0.35
  Cenpn log2 nFC: -1.74
  Cenpn nFC: 0.30
  Cenps log2 nFC: -1.80
  Cenps nFC: 0.29
  Cfp log2 nFC: -0.83
  Cfp nFC: 0.56
  Chl1 log2 nFC: -3.49
  Chl1 nFC: 0.09
  Chsy3 log2 nFC: -1.56
  Chsy3 nFC: 0.34
  Ckap2l log2 nFC: -2.06
  Ckap2l nFC: 0.24
  Ckap2 log2 nFC: -2.44
  Ckap2 nFC: 0.18
  Ckap4 log2 nFC: -0.63
  Ckap4 nFC: 0.65
  Ckb log2 nFC: -0.61
  Ckb nFC: 0.65
  Cks1b log2 nFC: -1.54
  Cks1b nFC: 0.34
  Clca3a1 log2 nFC: -2.06
  Clca3a1 nFC: 0.24
  Cldn4 log2 nFC: -1.99
  Cldn4 nFC: 0.25
  Clmp log2 nFC: -0.78
  Clmp nFC: 0.58
  Clspn log2 nFC: -1.79
  Clspn nFC: 0.29
  Clu log2 nFC: -0.81
  Clu nFC: 0.57
  Cmtm3 log2 nFC: -0.60
  Cmtm3 nFC: 0.66
  Col1a1 log2 nFC: -2.02
  Col1a1 nFC: 0.25
  Col3a1 log2 nFC: -1.54
  Col3a1 nFC: 0.34
  Col4a1 log2 nFC: -0.75
  Col4a1 nFC: 0.59
  Col4a2 log2 nFC: -0.64
  Col4a2 nFC: 0.64
  Col5a1 log2 nFC: -1.52
  Col5a1 nFC: 0.35
  Col5a2 log2 nFC: -1.48
  Col5a2 nFC: 0.36
  Col5a3 log2 nFC: -1.53
  Col5a3 nFC: 0.35
  Col6a2 log2 nFC: -0.67
  Col6a2 nFC: 0.63
  Col6a3 log2 nFC: -0.77
  Col6a3 nFC: 0.59
  Cped1 log2 nFC: 0.63
  Cped1 nFC: 1.55
  Cthrc1 log2 nFC: -2.00
  Cthrc1 nFC: 0.25
  Ctnnbip1 log2 nFC: -0.62
  Ctnnbip1 nFC: 0.65
  Ctsb log2 nFC: -0.75
  Ctsb nFC: 0.59
  Ctsh log2 nFC: -0.63
  Ctsh nFC: 0.64
  Cxcl9 log2 nFC: -1.62
  Cxcl9 nFC: 0.32
  Cxcl10 log2 nFC: -1.90
  Cxcl10 nFC: 0.27
  Cxcl12 log2 nFC: -0.67
  Cxcl12 nFC: 0.63
  Cxcl13 log2 nFC: -1.42
  Cxcl13 nFC: 0.37
  Cyth4 log2 nFC: -0.71
  Cyth4 nFC: 0.61
  Cytip log2 nFC: 0.63
  Cytip nFC: 1.54
  Ddr1 log2 nFC: -0.66
  Ddr1 nFC: 0.63
  Dnmt1 log2 nFC: -0.84
  Dnmt1 nFC: 0.56
  Dtl log2 nFC: -1.94
  Dtl nFC: 0.26
  Dtx4 log2 nFC: -0.70
  Dtx4 nFC: 0.61
  E2f8 log2 nFC: -1.57
  E2f8 nFC: 0.34
  Ect2 log2 nFC: -1.89
  Ect2 nFC: 0.27
  Efnb2 log2 nFC: 0.61
  Efnb2 nFC: 1.53
  Eln log2 nFC: -2.07
  Eln nFC: 0.24
  Emid1 log2 nFC: -0.78
  Emid1 nFC: 0.58
  Emilin1 log2 nFC: -0.84
  Emilin1 nFC: 0.56
  Emp1 log2 nFC: -0.70
  Emp1 nFC: 0.62
  Enc1 log2 nFC: -0.80
  Enc1 nFC: 0.57
  Epas1 log2 nFC: 0.67
  Epas1 nFC: 1.59
  Epb41 log2 nFC: 0.61
  Epb41 nFC: 1.52
  Espl1 log2 nFC: -1.71
  Espl1 nFC: 0.31
  Evi2a log2 nFC: -0.82
